Source: patent US12716904B2, “Compositions and methods for the detection of tuberculosis” (Washington University, priority 2021, dated 2026)

What was measured:
[1] = system: M. tuberculosis (H37Rv strain); assay: Mtb growth in minimal media with a defined sole carbon source; conditions: 100 μg/mL
Helicobacter pylori = conditions: recent work; cited from earlier work
[2] = system: M. tuberculosis (H37Rv strain); assay: Direct effect of cholestenone on Mtb growth in broth culture (absorbance, CFU); conditions: bacilli growing in broth culture
[3] = system: host and Mtb methylmalonyl-CoA mutase; conditions: host and Mtb enzyme; cited from earlier work
Mtb isocitrate lyase(s) = conditions: Mtb enzyme, methylcitrate cycle; cited from earlier work

In the case of `C[C@H](CCCC(C)(C)O)[C@H]1CC[C@H]2[C@@H]3CC=C4C[C@@H](O)CC[C@]4(C)[C@H]3CC[C@]12C` [25-HC, 25-hydroxycholesterol], the “growth of Mtb with the substance as sole carbon source” value [1] was “grew”.
For `CC(C)CCC[C@@H](C)[C@H]1CC[C@H]2[C@@H]3CCC4=CC(=O)CC[C@]4(C)[C@H]3CC[C@]12C` [cholestenone, 4-cholesten-3-one], the “antimicrobial activity against Helicobacter pylori” value (Helicobacter pylori) is listed as “has antimicrobial activity” and the “direct antimicrobial activity (toxicity) against Mtb” value [2] is listed as “not directly toxic to Mtb”.
In the case of `CC(C)CCC[C@@H](C)[C@H]1CC[C@H]2[C@@H]3CC=C4C[C@@H](O)CC[C@]4(C)[C@H]3CC[C@]12C` [cholesterol], the “growth of Mtb with the substance as sole carbon source” value [1] was “grew”.
For `C=C(CC(=O)O)C(=O)O` [itaconate, itaconic acid], the “inhibition of methylmalonyl-CoA mutase” value [3] is listed as “inhibits” and the “inhibition of isocitrate lyase(s)” value (Mtb isocitrate lyase(s)) is listed as “inhibits”.
